The METLIN SMRT retention time set (Domingo-Almenara et al. 2019)

Test: gradient 5% acetonitrile 3 min, to 50% in 2 min, to 85% in 15 min, held 3 min, 100 µL/min
Conditions: column: Zorbax Extend-C18 2.1 x 50 mm; eluents: water / acetonitrile, 0.1% formic acid
Procedure, shortened: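 Mixtures of ~100 pure standards were chromatographed on a Zorbax Extend-C18 column (2.1 × 50 mm, 1.8 μm) at 100 μL/min using water and acetonitrile, each with 0.1% formic acid. Detection used a quadrupole time-of-flight mass spectrometer in positive and negative ionization mode, and data collection spanned 3 months. Retention time was obtained from adduct peaks picked computationally and each checked manually.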

RP-LC retention time [s]	Compound
619	c1ccc2c(CC3=NCCN3)cccc2c1
920	CCOc1ccccc1CNC(=O)CN1CCN(Cc2ccc(F)cc2Cl)C1=O
749	CC(C)NC(=O)c1cccn(-c2ccc(NC(=O)C(C)(C)C)cc2)c1=O
855	CCCCC(=O)N1CCCN(C2=NS(=O)(=O)C(c3ccc(C)cc3)=C2C)CC1
692	CCCCNC(=O)C1CCCN(C(=O)c2[nH]c(C)c(C(=O)OC)c2C)C1 (stereo not given)
1390	Cc1ccc(C2Cn3nnc(-c4nc(C5CCCCC5)no4)c3CO2)c(C)c1 (stereo not given)
1230	CCOc1cccc(-c2noc(Cn3cnc4c(cnn4-c4cc(Cl)ccc4C)c3=O)n2)c1
1170	COc1nc2ccccc2nc1N1CCCC(C(=O)Nc2cc(F)cc(F)c2)C1 (stereo not given)
1090	COc1ccc(Cn2c(=O)c3sccc3n(Cc3nc(-c4ccccc4Cl)no3)c2=O)cc1
614	CN(CCO)c1cc(N2CCN(c3ccccn3)CC2)c2noc3c2c1C(=O)c1ccccc1-3
797	COc1ccc(C(=O)N2CCC(n3nc(-c4ccsc4)ccc3=O)CC2)cc1
652	Cc1ccc(NC(=O)NCCn2c(-c3ccncc3)nc3cccnc32)c(Cl)c1
1130	CCn1nccc1-c1cccc(-c2noc(-c3ccsc3)n2)c1
816	Cc1cc2nn(CC(=O)N3CCC(C)CC3)c(=O)n2c(-c2ccc(F)cc2)n1
626	Cc1cc(NC(=O)CN2CCc3[nH]c4c(C)c(C)ccc4c(=O)c3C2)ccc1F
823	O=C(Nc1ccc2c(c1)CN(C(=O)C1COc3ccccc3O1)CCO2)C1CC1 (stereo not given)
638	O=C(Cn1ccc2ccc(N3CCOCC3)nc21)NC1CCN(Cc2ccccc2)CC1
573	Cc1ccccc1CN1CC(=O)NCC12CCCC2
944	COc1ccccc1NC(=O)c1cnc2c(c1)c(=O)n(C)c(=O)n2-c1ccc(C)cc1
579	O=C(O)C1CN(C(=O)c2ccc3c(c2)OCO3)C1
553	Cc1cc(NC(=O)c2ccc(-n3ccnc3)nn2)no1
583	Cc1ccn(CC(C)NC(=O)c2cn3ccccc3n2)n1 (stereo not given)
1050	CCOc1cccc(CNC(=O)c2sc3ncccc3c2-n2cccc2)c1

RP-LC retention time [s]	Compound
966	CC(NC(=O)c1cn(-c2ncccc2-c2nc(-c3ccccc3)no2)cn1)c1ccccc1 (stereo not given)
1220	CCn1ccc(-c2nc(-c3cccc(-c4csc(C5CC5)n4)c3)no2)n1
613	CCN1CCN(C(=O)C2CCc3sc(C(=O)N4CCCCC4)cc3C2)CC1 (stereo not given)
667	CN(C)c1cccc(C(=O)NC2CCN(c3ccccc3)C2=O)c1 (stereo not given)
905	CCNC(=O)N1CCCC(c2cccc(C(=O)NCc3ccccc3C(F)(F)F)c2)C1 (stereo not given)
728	COc1ccc(NC(=O)N2CCC3(CC2)NC(=O)c2ccccc2O3)c(OC)c1
878	COC(=O)c1cc2c(=O)n(-c3cccc(Cl)c3)ccc2nc1C
706	CCn1c(=O)c2ccn(CC(=O)NCc3ccc(C)cc3)c2n(CC)c1=O
668	Cc1nc2ccc(Cl)cn2c(=O)c1NC(=O)c1ccc([N+](=O)[O-])cc1Cl
715	Cn1nnc2cc(CNC(=O)c3cccc(Cl)c3)ccc21
595	O=C(N[C@@H]1CN(c2ncccn2)C[C@H]1CO)c1ccc(F)cn1
1050	Cc1sc(-c2noc(C3CC3)n2)cc1S(=O)(=O)N1CCC(C(=O)N2CCCCCC2)CC1
716	O=S(=O)(Nc1ccc(Cn2cncn2)cc1)c1cccc(Cl)c1
1040	Fc1cccc(Cn2cc(-c3noc(-c4cccc(F)c4)n3)nn2)c1
705	Cc1cc(C(=O)NCCN2CCN(c3cccc(C)c3C)CC2)n(-c2ccccc2)n1
557	CCc1nc(NCc2ccccn2)ncc1C(=O)O
794	CCN1CCn2cc(S(=O)(=O)NCc3cc(F)cc(F)c3)cc2C1=O
1040	Cc1c(-c2noc(-c3ccc(N(C)C)cc3)n2)nnn1-c1ccc(F)cc1
948	Cc1ccccc1NC(=O)Cc1csc2nc(-c3cccc(Br)c3)cn12
870	COC(=O)CNC(=O)N1CCCCCC1c1ccc(Cl)cc1 (stereo not given)
846	O=C(COc1ccccc1)N1CC2CN(S(=O)(=O)c3ccc(F)cc3)CC(C1)O2
1030	O=C(COc1ccccc1[N+](=O)[O-])Nc1nc2c(s1)CCc1ccccc1-2
758	COc1ccc(-n2nc(C(=O)Nc3ccc4c(c3)OCCO4)c(=O)cc2OC)cc1

RP-LC retention time [s]	Compound
761	O=C(CN1CCN(Cc2ccccc2)C1=O)NCc1cccc(F)c1
1290	Cc1cccc(Sc2nccnc2N2CCCC(C(=O)Nc3ccc(Br)cc3)C2)c1 (stereo not given)
607	Cc1cccc(CC(=O)NCCSc2ncc(-c3ccccc3)[nH]2)c1
865	Cc1sc(NC(=O)CC(C)C)nc1-c1ccc2c(c1)NC(=O)C(C)O2 (stereo not given)
618	Cc1nc2cc3c(cc2n1CC(=O)Nc1ccc2c(c1)OCCCO2)OCCO3
925	CC(C)C(=O)N1CCc2c([nH]c3ccccc23)C12C(=O)Nc1ccc(Br)cc12 (stereo not given)
661	O=C(Cn1nc2nc(N3CCCC3)ccn2c1=O)N1CCN(c2ccc(F)cc2)CC1
738	Cc1ccc(NC(=O)Cn2c(C(C)C)nc3c(c2=O)CN(Cc2ccccc2)CC3)cc1C
812	CCCS(=O)(=O)N1CCC2(CC1)CN(c1ccccc1)C2=O
979	Cn1nc(-c2nnc(-c3ccccc3)o2)c2c1CCN(S(=O)(=O)c1ccc(F)c(Cl)c1)C2
787	CCSc1ccc(-c2cccc(NC(=O)CC)c2)nn1
1000	CCC(C)NC(=O)c1cnn(-c2ccc(-c3nc(C(C)C)no3)cn2)c1C (stereo not given)
754	Cc1cccc(NC(=O)C2CCCN(c3nnc(C)c4c(C)n(-c5ccccc5)nc34)C2)c1C (stereo not given)
792	CCOC(=O)c1c(C)c(CCC(=O)NCc2ccco2)n(C)c1C
1000	COc1ccccc1NC(=O)N1CCCC1c1nc(-c2ccc(F)cc2F)no1 (stereo not given)
1160	CC1CCC(NC(=O)c2nnn(Cc3ccc(F)cc3)c2-n2cccc2)CC1 (stereo not given)
601	Cc1nnc(-c2ccc(S(=O)(=O)N3CCN(c4ccccn4)CC3)o2)o1
632	Cc1noc(C)c1CC(=O)NCC12CCC=C1NC(=O)CC2 (stereo not given)
626	COc1ccc(C2(C(=O)N3CC(n4ccnc4C(C)C)C3)CC2)cc1
634	O=C(c1ccc(Cl)cc1)N1CCN(c2cnn3cnnc3c2)CC1
806	CC1=C(c2cccc(Cl)c2)S(=O)(=O)N=C1N1CCCN(C(=O)c2ccoc2)CC1
714	CSc1ccc(CNC(=O)CCc2c(-c3ccc(Br)cc3)nc3ccccn23)cc1
965	Cc1ccc(-c2cc(C(=O)N3CCCC3)n(C)c2)cc1

RP-LC retention time [s]	Compound
651	CCOC(=O)c1c(C)[nH]c(C)c1S(=O)(=O)NCCCN1CCc2ccccc2C1
695	COc1ccc(OC)c(NC(=O)Cn2c(N3CCOCC3)nc(C)cc2=O)c1
681	COc1ccccc1CNC(=O)c1cn2cc(C)ccc2n1
872	CC(C)n1c(N2CCN(C(=O)c3[nH]nc4c3CCc3ccccc3-4)CC2)cc(=O)n(C(C)C)c1=O
633	COc1ccc(NC(=O)NCCc2cn(C)c3ncccc23)cc1
701	Cc1cc(F)ccc1NC(=O)C1CCCN1S(C)(=O)=O (stereo not given)
868	COc1ccc(-c2nnc(-c3cccc(S(=O)(=O)N4CCOCC4)c3)o2)cc1
718	O=C(NC1CCN(C(=O)c2cc(-c3cccc(Cl)c3)n[nH]2)CC1)c1cccs1
1000	O=C(CC1CCN(S(=O)(=O)c2ccc(Cl)s2)CC1)N1CCCCCC1
643	O=C(Nc1ccc(-c2ccc(=O)[nH]n2)cc1)c1ccc(-n2cccn2)nn1
669	CC(=O)Nc1ccc(CCc2nc3ccc(C(=O)NCc4cccc(Br)c4)cc3[nH]2)cc1
908	COc1ccccc1N1CCN(c2cc(SCC(=O)NCc3ccccc3Cl)ncn2)CC1
933	Cc1cccc(S(=O)(=O)N2CC3CN(C(=O)c4ccco4)CC(C2)O3)c1
633	Cc1ccc2nc(-c3ccc(O)cc3)c(Nc3ccc4c(c3)OCO4)n2c1
785	COC1CN(c2cccc(F)c2)C12CCN(Cc1ccc(F)c(F)c1)CC2 (stereo not given)
971	CCc1nc(OCC(=O)NCc2cc(OC)ccc2OC)c2c(C)c(C)oc2n1
662	CC1CN(C2CCCCC2)c2nc3c(c(=O)n(CCN4CCOCC4)c(=O)n3C)n2C1 (stereo not given)
879	CCn1ccc2sc(C)c(C(=O)NCc3ccccc3Cl)c2c1=O
828	CC(C)Sc1ccc(CC(=O)NCC2CCN(C(=O)NC(C)(C)C)CC2)cc1
704	Cc1cc2[nH]c(C(=O)Nc3ccc(Cl)cc3C)c(CN(C)C)c2s1

Compound	RP-LC retention time [s]
CCn1cc(-c2ccc(C)cc2)cc1C(=O)N1CCC2(CC1)OCCO2	1000
